Data published in patent US9045445B2, “Glycine transporter-1 inhibitors, methods of making them, and uses thereof” (Albany Molecular Research, Inc., priority 2010, dated 2015).
pIC50: −log10 of the molar value. Structures can show the parent of a compound that is named as a salt.

Columns and labels:
[1] = target: T1, glycine transporter-2 (GlyT-2) (Homo sapiens, UniProt Q9Y345); assay: [14C]glycine uptake assay in HEK-GlyT-2 transfected cells; assay type: cell-based; conditions: HEK-GlyT-2 cells
T1 construct: expressed in transfected cells
T1 sequence (Q9Y345 1-797): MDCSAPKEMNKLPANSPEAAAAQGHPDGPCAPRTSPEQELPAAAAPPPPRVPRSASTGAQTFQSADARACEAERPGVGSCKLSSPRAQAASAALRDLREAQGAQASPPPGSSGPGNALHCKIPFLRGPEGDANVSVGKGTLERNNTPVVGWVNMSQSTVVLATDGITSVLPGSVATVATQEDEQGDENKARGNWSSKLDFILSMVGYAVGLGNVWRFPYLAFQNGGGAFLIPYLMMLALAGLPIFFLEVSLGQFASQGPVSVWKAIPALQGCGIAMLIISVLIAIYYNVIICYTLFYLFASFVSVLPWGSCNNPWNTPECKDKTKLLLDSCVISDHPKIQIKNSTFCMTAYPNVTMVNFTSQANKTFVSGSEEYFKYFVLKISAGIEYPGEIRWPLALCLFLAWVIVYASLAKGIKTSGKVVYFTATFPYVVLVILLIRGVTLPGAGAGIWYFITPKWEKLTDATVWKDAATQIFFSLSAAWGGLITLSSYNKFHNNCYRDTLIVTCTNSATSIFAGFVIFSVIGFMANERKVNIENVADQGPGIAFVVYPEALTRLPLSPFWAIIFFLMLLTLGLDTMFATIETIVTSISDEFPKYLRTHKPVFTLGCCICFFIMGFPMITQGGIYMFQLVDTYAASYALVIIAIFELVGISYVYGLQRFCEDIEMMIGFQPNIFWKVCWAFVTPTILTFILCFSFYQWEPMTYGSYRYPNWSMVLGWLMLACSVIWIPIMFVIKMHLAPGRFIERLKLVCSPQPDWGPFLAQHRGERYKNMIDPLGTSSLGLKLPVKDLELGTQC

[2] = target: T2, glycine transporter-1 (GlyT-1) (Homo sapiens, UniProt P48067); assay: [14C]glycine uptake assay in JAR cells endogenously expressing GlyT-1 (scintillation proximity); assay type: cell-based; conditions: JAR cells, [14C]glycine 5 μM, 3 hour incubation; read-out: GlyT-1 IC50
T2 construct: JAR cells (ATCC#HTB-144), which endogenously express GlyT-1; host or cells: JAR human choriocarcinoma cells
T2 sequence (P48067 1-706): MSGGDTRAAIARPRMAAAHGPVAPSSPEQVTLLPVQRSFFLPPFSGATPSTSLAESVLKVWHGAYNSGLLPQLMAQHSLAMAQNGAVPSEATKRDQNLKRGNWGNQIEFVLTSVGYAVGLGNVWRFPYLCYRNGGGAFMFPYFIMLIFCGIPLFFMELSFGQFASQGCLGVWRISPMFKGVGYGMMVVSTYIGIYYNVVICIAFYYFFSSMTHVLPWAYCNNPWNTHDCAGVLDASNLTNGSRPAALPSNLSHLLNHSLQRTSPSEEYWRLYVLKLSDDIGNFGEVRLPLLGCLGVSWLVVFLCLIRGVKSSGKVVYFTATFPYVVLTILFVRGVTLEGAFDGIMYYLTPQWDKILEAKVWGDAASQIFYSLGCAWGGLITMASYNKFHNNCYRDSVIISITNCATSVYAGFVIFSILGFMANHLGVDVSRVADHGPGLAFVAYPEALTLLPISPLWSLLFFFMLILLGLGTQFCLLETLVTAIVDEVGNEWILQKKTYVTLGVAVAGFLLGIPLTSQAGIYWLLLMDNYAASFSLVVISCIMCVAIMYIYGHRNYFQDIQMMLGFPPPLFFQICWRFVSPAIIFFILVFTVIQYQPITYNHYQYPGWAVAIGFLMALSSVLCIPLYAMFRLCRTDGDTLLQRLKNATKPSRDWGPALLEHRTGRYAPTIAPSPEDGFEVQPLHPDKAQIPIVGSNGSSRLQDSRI
In short: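 IC50 comes from a four-parameter fit of nine-point, duplicate curves measuring inhibition of 5 μM [14C]glycine uptake, read by scintillation proximity after 3 h at 37 °C. Cells are human JAR, which express GlyT-1 endogenously, given 10 min compound pre-treatment in pH 7.4 buffer with 5 mM alanine and 0.75% DMSO.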

pIC50 [1]	pIC50 [2]	Structure (SMILES)
< 4.12	9.00	Cc1cccc(C)c1C(=O)NCC1(N2CCN(S(=O)(=O)c3cn(C)cn3)CC2)CCCCC1 [compound 95, 2,6-Dimethyl-N-((1-(4-(1-methyl-1H-imidazol-4-ylsulfonyl)piperazin-1-yl)cyclohexyl)methyl) benzamide Hydrochloride]
< 4.12	8.70	COc1cccc(F)c1C(=O)NCC1(N2CCN(S(=O)(=O)c3cn(C)cn3)CC2)CCCCC1 [compound 96, 2-Fluoro-6-methoxy-N-((1-(4-(1-methyl-1H-imidazol-4-ylsulfonyl)piperazin-1-yl)cyclohexyl)methyl) benzamide Hydrochloride]
< 4.12	8.70	Cn1cnc(S(=O)(=O)N2CCN(C3(CNC(=O)c4ccc(Cl)cc4Cl)CCCCC3)CC2)c1 [compound 97, 2,4-Dichloro-N-((1-(4-(1-methyl-1H-imidazol-4-ylsulfonyl)piperazin-1-yl)cyclohexyl)methyl) benzamide Hydrochloride]
< 4.12	8.40	Cn1cnc(S(=O)(=O)N2CCN(C3(CNC(=O)c4c(F)cccc4F)CCCCC3)CC2)c1 [compound 98, 2,6-Difluoro-N-((1-(4-(1-methyl-1H-imidazol-4-ylsulfonyl)piperazin-1-yl)cyclohexyl)methyl) benzamide Hydrochloride]
< 4.12	8.70	Cn1cnc(S(=O)(=O)N2CCN(C3(CNC(=O)c4c(N)cccc4Cl)CCCCC3)CC2)c1 [compound 99, 2-Amino-6-chloro-N-((1-(4-(1-methyl-1H-imidazol-4-ylsulfonyl)piperazin-1-yl)cyclohexyl)methyl) benzamide Hydrochloride]
< 4.12	7.52	Cn1cnc(S(=O)(=O)N2CCN(C3(CNC(=O)c4ccc(F)cc4F)CCCCC3)CC2)c1 [compound 100, 2,4-Difluoro-N-((1-(4-(1-methyl-1H-imidazol-4-ylsulfonyl)piperazin-1-yl)cyclohexyl)methyl) benzamide Hydrochloride]
< 4.12	8.70	Cn1cnc(S(=O)(=O)N2CCN(C3(CNC(=O)c4ccc(F)cc4Cl)CCCCC3)CC2)c1 [compound 101, 2-Chloro-4-fluoro-N-((1-(4-(1-methyl-1H-imidazol-4-ylsulfonyl)piperazin-1-yl)cyclohexyl)methyl) benzamide Hydrochloride]
< 4.12	8.00	Cc1cc(F)ccc1C(=O)NCC1(N2CCN(S(=O)(=O)c3cn(C)cn3)CC2)CCCCC1 [compound 102, 4-Fluoro-2-methyl-N-((1-(4-(1-methyl-1H-imidazol-4-ylsulfonyl)piperazin-1-yl)cyclohexyl)methyl) benzamide Hydrochloride]
< 4.12	7.35	COc1cc(F)cc(C)c1C(=O)NCC1(N2CCN(S(=O)(=O)c3cn(C)cn3)CC2)CCCC1 [compound 103, 4-Fluoro-2-methoxy-6-methyl-N-((1-(4-(1-methyl-1H-imidazol-4-ylsulfonyl)piperazin-1-yl)cyclopentyl)methyl) benzamide Hydrochloride]
< 4.12	6.46	Cn1cnc(S(=O)(=O)N2CCN(C3(CNC(=O)c4c(F)cccc4F)CCCC3)CC2)c1 [compound 104, 2,6-Difluoro-N-((1-(4-(1-methyl-1H-imidazol-4-ylsulfonyl)piperazin-1-yl)cyclopentyl)methyl) benzamide Hydrochloride]
< 4.12	6.99	Cn1cnc(S(=O)(=O)N2CCN(C3(CNC(=O)c4ccc(Cl)cc4Cl)CCCC3)CC2)c1 [compound 105, Hydrochloride]
< 4.12	8.30	Cn1cnc(S(=O)(=O)N2CCN(C3(CNC(=O)c4c(Cl)cccc4Cl)CCCCCC3)CC2)c1 [compound 106, 2,6-Dichloro-N-((1-(4-(1-methyl-1H-imidazol-4-ylsulfonyl)piperazin-1-yl)cycloheptyl)methyl) benzamide Hydrochloride]
< 4.12	8.05	Cn1cnc(S(=O)(=O)N2CCN(C3(CNC(=O)c4c(F)cccc4F)CCCCCC3)CC2)c1 [compound 107, 2,6-Difluoro-N-((1-(4-(1-methyl-1H-imidazol-4-ylsulfonyl)piperazin-1-yl)cycloheptyl)methyl) benzamide Hydrochloride]
< 4.12	7.26	Cn1cc(S(=O)(=O)N2CCN(C3(CNC(=O)c4c(F)cccc4F)CCCC3)CC2)nn1 [compound 108, 2,6-Difluoro-N-((1-(4-(1-methyl-1H-1,2,3-triazol-4-ylsulfonyl)piperazin-1-yl)cyclopentyl)methyl) benzamide Hydrochloride]
< 4.12	7.51	Cn1cc(S(=O)(=O)N2CCN(C3(CNC(=O)c4c(Cl)cccc4Cl)CCCC3)CC2)nn1 [compound 109, 2,6-Dichloro-N-((1-(4-(1-methyl-1H-l,2,3-triazol-4-ylsulfonyl)piperazin-1-yl)cyclopentyl)methyl) benzamide Hydrochloride]
< 4.12	7.57	Cn1cc(S(=O)(=O)N2CCN(C3(CNC(=O)c4ccc(Cl)cc4Cl)CCCC3)CC2)nn1 [compound 110, 2,4-Dichloro-N-((1-(4-(1-methyl-1H-1,2,3-triazol-4-ylsulfonyl)piperazin-1-yl)cyclopentyl)methyl) benzamide Hydrochloride]
< 4.12	6.62	Cn1cc(S(=O)(=O)N2CCN(C3(CNC(=O)c4ccc(F)cc4F)CCCC3)CC2)nn1 [compound 111, 2,4-Difluoro-N-((1-(4-(1-methyl-1H-1,2,3-triazol-4-ylsulfonyl)piperazin-1-yl)cyclopentyl)methyl) benzamide Hydrochloride]
< 4.12	7.85	COc1cc(F)cc(C)c1C(=O)NCC1(N2CCN(S(=O)(=O)c3cn(C)nn3)CC2)CCCC1 [compound 112, 4-Fluoro-2-methoxy-6-methyl-N-((1-(4-(1-methyl-1H-1,2,3-triazol-4-ylsulfonyl)piperazin-1-yl)cyclopentyl)methyl) benzamide Hydrochloride]
< 4.12	8.52	COc1cc(F)cc(SC)c1C(=O)NCC1(N2CCN(S(=O)(=O)c3cn(C)nn3)CC2)CCCC1 [compound 113, 4-Fluoro-2-methoxy-N-((1-(4-(1-methyl-1H-1,2,3-triazol-4-ylsulfonyl)piperazin-1-yl)cyclopentyl)methyl)-6-(methylthio)benzamide Hydrochloride]
< 4.12	8.70	Cn1cc(S(=O)(=O)N2CCN(C3(CNC(=O)c4c(F)cccc4F)CCCCC3)CC2)nn1 [compound 114, 2,6-Difluoro-N-((1-(4-(1-methyl-1H-1,2,3-triazol-4-ylsulfonyl)piperazin-1-yl)cyclohexyl)methyl) benzamide Hydrochloride]
< 4.12	6.18	CCCS(=O)(=O)N1CCN(C2(CNC(=O)c3c(N)cccc3Cl)Cc3ccccc3C2)CC1 [compound 115, 2-Amino-6-chloro-N-((2-(4-(propylsulfonyl)piperazin-1-yl)-2,3-dihydro-1H-inden-2-yl)methyl)benzamide Hydrochloride]

Structure (SMILES)	pIC50 [1]	pIC50 [2]
CCCS(=O)(=O)N1CCN(C2(CNC(=O)c3c(N)cccc3Cl)CCN(C)CC2)CC1 [compound 116, 2-Amino-6-chloro-N-((1-methyl-4-(4-(propylsulfonyl)piperazin-1-yl)piperidin-4-yl)methyl)benzamide Hydrochloride]	< 4.12	6.30
